Test results taken from patent publication US20190374543A1, “Therapeutic Combinations of an Antifolate and a BTK Inhibitor” (Acerta Pharma B.V., priority 2016, published 2019).

How the values were obtained:
Format in all cases: in vivo
[1] = test system: type II collagen arthritis; assay: mouse type II collagen arthritis model: body weight, daily clinical arthritis scores (AUC), incidence
[2] = target: T1, BTK (Mus musculus, UniProt P35991); assay: BTK occupancy in splenocytes collected after euthanasia; settings: with vs without MTX co-treatment
T1 construct: from tissue; host or cells: splenocytes from spleens of collagen-induced-arthritis DBA/1 mice
Excerpt: (§1) On study day 43, mice were euthanized and necropsy specimens were obtained. After terminal bleeds, animals were euthanized by cervical dislocation. Fore paws, hind paws, and knees were harvested and placed in 10% neutral buffered formalin (NBF) for microscopy. Spleens were harvested from a subset of mice and processed for splenocytes.

[3] = test system: type II collagen arthritis; assay: histopathology of paws and knees in mouse type II collagen arthritis model; settings: for Histopathology Summed Scores (All Joints): mean (SE)
Excerpt: as §1
After 1-2 days in fixative and 4-5 days in 5% formic acid for decalcification, tissues were trimmed, and processed for paraffin embedding. Paws were embedded in paraffin in the frontal plane and knees were embedded with the patella facing down. Ankles, if left attached to the hind paw, were also embedded in the frontal plane but in some instances were detached and sectioned in the sagittal plane for special purposes. Left/right pairs were typically embedded in the same block. Sections were then cut and stained with toluidine blue.
When scoring paws or ankles from mice with lesions of type II collagen arthritis, severity of changes as well as number of individual joints affected was considered. When only one to three joints of the paws or ankles out of a possibility of numerous metacarpal/metatarsal/digit or tarsal/tibiotarsal joints was affected, an arbitrary assignment of a maximum score of 0.5, 1, 2 or 3 for parameters below was given depending on severity of changes. If more than three joints were involved, the criteria below were applied to the most severely affected/majority of joints. In the case of knees, severity of changes in medial and lateral, as well as femoropatellar spaces, were considered.
The following parameters were scored according to the indicated criteria: Inflammation Score, Pannus Score, Cartilage Damage Score, Bone Resorption Score, and Periosteal New Bone Formation Score and Measurements. Unless otherwise indicated, criteria apply to both paws and knees. Mean values for each parameter are determined separately for the paws, knees, and the entire animal (if applicable).
The Inflammation Score was determined based on the following criteria for Paw Score and Knee Score.
The Paw Score was classified based on the following criteria: 0=Normal; 0.5=Very minimal, affects only 1 joint or minimal multifocal periarticular infiltration of inflammatory cells; 1=Minimal infiltration of inflammatory cells in synovium and periarticular tissue of affected joints; 2=Mild infiltration of inflammatory cells. If referring to paws, generally restricted to affected joints (1-3 affected); 3=Moderate infiltration with moderate edema. If referring to paws, restricted to affected joints, generally 3-4 joints and the wrist or ankle; 4=Marked infiltration affecting most areas with marked edema, 1 or 2 unaffected joints may be present; 5=Severe diffuse infiltration with severe edema affecting all joints (to some extent) and periarticular tissues.
The Knee Score was classified based on the following criteria: 0=Normal; 0.5=Very minimal, affects only one area of the synovium or minimal multifocal periarticular infiltration of inflammatory cells; 1=Minimal infiltration of inflammatory cells in synovium and periarticular tissue of affected synovial areas; 2=Mild diffuse infiltration of inflammatory cells; 3=Moderate diffuse infiltration of inflammatory cells; 4=Marked diffuse infiltration of inflammatory cells; 5=Severe diffuse infiltration of inflammatory cells.
The inflammatory infiltrate in mice and rats with type II collagen arthritis consists of neutrophils and macrophages with smaller numbers of lymphocytes when the lesions are in the acute to subacute phase. Tissue edema and neutrophil exudates within the joint space are common in the acute to subacute phase. As the inflammation progresses to chronic, mononuclear inflammatory cells (monocytes, lymphocytes) predominate and fibroblast proliferation, often with deposition of metachromatic matrix, occurs in synovium and periarticular tissue. Exudate is less common in the joint space.

[4] = 5 mg/kg Formula (2) alone, vs vehicle controls
[5] = Group 3: MTX vehicle + BTK inhibitor of formula (2) 1 mg/kg PO QD d28-43
[6] = Group 4: MTX vehicle + BTK inhibitor of formula (2) 5 mg/kg PO QD d28-43
[7] = Group 5: MTX 0.3 mg/kg PO QD d18-43 + BTK inhibitor of formula (2) vehicle
[8] = Group 6: MTX 0.5 mg/kg PO QD d18-43 + BTK inhibitor of formula (2) vehicle

T1 sequence (P35991 whole entry): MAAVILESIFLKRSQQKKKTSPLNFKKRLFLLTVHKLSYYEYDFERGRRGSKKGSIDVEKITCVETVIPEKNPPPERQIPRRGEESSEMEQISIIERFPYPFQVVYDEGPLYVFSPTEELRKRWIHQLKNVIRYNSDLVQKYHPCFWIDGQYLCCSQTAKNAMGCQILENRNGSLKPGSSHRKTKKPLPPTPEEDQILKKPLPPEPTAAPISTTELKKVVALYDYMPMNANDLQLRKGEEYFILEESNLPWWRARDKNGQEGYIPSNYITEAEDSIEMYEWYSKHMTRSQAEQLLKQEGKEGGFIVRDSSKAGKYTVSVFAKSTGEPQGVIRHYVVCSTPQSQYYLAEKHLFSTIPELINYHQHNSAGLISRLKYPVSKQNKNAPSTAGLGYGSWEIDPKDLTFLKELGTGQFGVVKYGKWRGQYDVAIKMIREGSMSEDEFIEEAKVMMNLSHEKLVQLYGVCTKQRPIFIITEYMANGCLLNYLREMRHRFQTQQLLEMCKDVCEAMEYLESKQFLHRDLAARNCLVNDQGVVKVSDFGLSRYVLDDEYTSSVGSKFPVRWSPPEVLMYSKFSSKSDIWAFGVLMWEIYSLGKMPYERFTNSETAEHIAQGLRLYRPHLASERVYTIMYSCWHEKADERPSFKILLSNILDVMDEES

CC#CC(=O)N1CCC[C@H]1c1nc(-c2ccc(C(=O)Nc3ccccn3)cc2)c2c(N)nccn12 [BTK inhibitor of Formula (2), (S)-4-(8-amino-3-(1-(but-2-ynoyl)pyrrolidin-2-yl)imidazo[1,5-c]pyrazin-1-yl)-N-(pyridin-2-yl)benzamide]
disease-induced body weight loss (percent change from baseline) ([1]; 1 mg/kg Formula (2), vs vehicle controls, Day 36): significantly inhibited | daily clinical arthritis scores over time [1, 4]: differed significantly | inhibition of absolute body weight loss at study termination [1, 4]: 66% | reduction of arthritis scores AUC Days 18-43 [1, 4]: 62% | disease-induced body weight loss (percent change from baseline) ([1]; 5 mg/kg Formula (2), vs vehicle controls, Days 32-38 and 43): significantly inhibited | clinical arthritis scores ([1]; 5 mg/kg Formula (2), vs vehicle controls, Study Days 30-43): significantly reduced | Change in Body Weight (g) Day 18-43 [1, 5]: -0.19 g | Clinical Arthritis Score AUC Day 18-43 [1, 5]: 61.41 | Clinical Arthritis Score AUC Day 28-43 [1, 5]: 54.81 | Percent Incidence [1, 5]: 100% | Change in Body Weight (g) Day 18-43 [1, 6]: *0.12 g | Clinical Arthritis Score AUC Day 18-43 [1, 6]: *27.30 | Clinical Arthritis Score AUC Day 28-43 [1, 6]: *21.27 | Percent Incidence ([1]; Group 4: MTX vehicle + BTK inhibitor of formula (2) 5 mg/kg PO QD d28-43, at termination, 5 mg/kg): 42% | Percent Incidence ([1]; Group 4: MTX vehicle + BTK inhibitor of formula (2) 5 mg/kg PO QD d28-43, at termination, listed as BTK inhibitor of formula (2), 5 mg/kg): 42% | Btk occupancy in splenocytes [2]: the same in the presence or absence of MTX | reduction of knee bone resorption [3, 4]: 90% | reduction of knee inflammation [3, 4]: 72% | reduction of knee pannus formation [3, 4]: 85% | reduction of summed knee histopathology scores [3, 4]: 74% | reduction of summed paw histopathology scores [3, 4]: 72% | reduction of summed six-joint mean histopathology scores [3, 4]: 73% | reductions of all paw histopathology parameters [3, 4]: 59-82% | reductions of all six-joint mean histopathology parameters [3, 4]: 63-82% | reductions of paw and six-joint mean periosteal bone widths [3, 4]: 82-83% | Histopathology Summed Scores (All Joints) [3, 5]: 11.03 (1.01) | Histopathology Summed Scores (All Joints) [3, 6]: *4.15 (1.01)

CN(Cc1cnc2nc(N)nc(N)c2n1)c1ccc(C(=O)N[C@@H](CCC(=O)O)C(=O)O)cc1 [MTX, (2S)-2-[(4-{[(2,4-Diaminopteridin-6-yl)methyl](methyl)amino}benzoyl)amino]pentanedioic acid, reference compound]
daily clinical arthritis scores over time ([1]; 0.5 mg/kg MTX alone, vs vehicle controls): differed significantly | clinical arthritis scores ([1]; 0.5 mg/kg MTX, vs vehicle controls, Days 25-29): significantly reduced | Change in Body Weight (g) Day 18-43 [1, 7]: -1.16 g | Clinical Arthritis Score AUC Day 18-43 [1, 7]: 51.72 | Clinical Arthritis Score AUC Day 28-43 [1, 7]: 48.82 | Percent Incidence [1, 7]: 100% | Change in Body Weight (g) Day 18-43 [1, 8]: -0.83 g | Clinical Arthritis Score AUC Day 18-43 [1, 8]: 46.79 | Clinical Arthritis Score AUC Day 28-43 [1, 8]: 45.51 | Percent Incidence [1, 8]: 100% | Histopathology Summed Scores (All Joints) [3, 7]: 10.24 (1.66) | Histopathology Summed Scores (All Joints) [3, 8]: 8.46 (1.36)
